From article PMC10708527, “Salazinic Acid and Norlobaridone from the Lichen Hypotrachyna cirrhata: Antioxidant Activity, α-Glucosidase Inhibitory and Molecular Docking Studies” (Molecules, 2023)

Molecular target: T1, intestinal α-glucosidase
T1 construct: crude rat intestinal enzyme
Assay: crude enzyme inhibition, p-nitrophenyl-α-D-glucopyranoside hydrolysis at […] nm
Format: biochemical, Rattus norvegicus

| Compound | Intestinal α-Glucosidase % Inhibition (IC50) |
| --- | --- |
| C[C@H]1O[C@H](O[C@H]2[C@H](O)[C@@H](O)[C@@H](O[C@H]3[C@H](O)[C@@H](O)C(O)O[C@@H]3CO)O[C@@H]2CO)[C@H](O)[C@@H](O)[C@@H]1N[C@H]1C=C(CO)[C@@H](O)[C@H](O)[C@H]1O (some centres unmarked) [acarbose, reference compound] | 2.58 ± 0.85 µg/mL |
| Cc1cc(O)c(C=O)c2c1C(=O)Oc1c(CO)c(O)c3c(c1O2)C(O)OC3=O (centres unmarked) [compound 11, salazinic acid] | 1.62 ± 0.07 µg/mL |
| CCCCCc1cc(O)cc2c1Oc1cc(O)cc(C(=O)CCCC)c1C(=O)O2 [compound 12, norlobaridone] | 1.41 ± 0.01 µg/mL |
| COC(=O)c1c(C)cc(OC(=O)c2c(C)cc(O)c(C=O)c2O)c(C)c1O [compound 13, atranorin] | 2.07 ± 0.01 µg/mL |
| COc1c(C)c(O)cc(C)c1C(=O)O [compound 18, iso-rhizonic acid] | 1.99 ± 0.03 µg/mL |
